Data: PMC7830743 (Journal of medicinal chemistry, 2020)
Entries after “also recorded” stand apart in the source; their conditions may differ.

What was measured:
[1] = test system: tumor LDH activity (A673 flank xenograft); test: In vivo LDHA activity in A673 xenograft tumor mouse model; details: single IV 50 mg/kg, A673 xenograft mice
[2] = RLM stability assay, single time point; details: single-point (15 min) measurement; >30 min is highest estimable
[3] = test system: A673 cells; test: Cytotoxicity assay in A673 cells; format: cell-based, human; details: Homo sapiens, A673, 48 h, read-out: A673 cells Cytotox. IC50
[4] = test system: MiaPaCa-2 cells; test: Cellular lactate production assay in MiaPaCa-2 cells; format: cell-based; details: Homo sapiens, MIA PaCa-2, 0.5 h, read-out: MiaPaCa-2 cells lactate inh. IC50
[5] = molecular target: LDHA (Homo sapiens, UniProt P00338); test: Biochemical LDHA inhibition assay
[6] = test system: MiaPaCa-2 cells; test: Cytotoxicity assay in MiaPaCa-2 cells; format: cell-based; details: Homo sapiens, MIA PaCa-2, 48 h, read-out: MiaPaCa-2 cells Cytotox. IC50
[7] = Kinetic solubility assay; format: physicochemical; details: PBS buffer
[8] = test system: A673 cells; test: Cellular lactate production assay in A673 cells; format: cell-based, human; details: Homo sapiens, A673, 0.5 h, read-out: A673 cells lactate inh. IC50
[9] = molecular target: LDHA with C-terminal HiBiT fusion tag (Homo sapiens, UniProt P00338); test: SplitLuc CETSA; format: cell-based
[10] = Mouse pharmacokinetic studies; format: in vivo, CD1 mice; details: male, CD1, mouse, plasma, iv, 10 mg/kg
[11] = Liver cytosolic stability; format: in vitro ADME, and rat; details: human, mouse, rat, liver cytosol
[12] = Metabolic stability in hepatocytes; format: in vitro ADME, and mouse; details: rat, dog, mouse
[13] = molecular target: T1, CYP450 2C8 (Homo sapiens, UniProt P10632); test: CYP450 inhibition, 2C8; format: in vitro ADME
T1 sequence (P10632 1-490): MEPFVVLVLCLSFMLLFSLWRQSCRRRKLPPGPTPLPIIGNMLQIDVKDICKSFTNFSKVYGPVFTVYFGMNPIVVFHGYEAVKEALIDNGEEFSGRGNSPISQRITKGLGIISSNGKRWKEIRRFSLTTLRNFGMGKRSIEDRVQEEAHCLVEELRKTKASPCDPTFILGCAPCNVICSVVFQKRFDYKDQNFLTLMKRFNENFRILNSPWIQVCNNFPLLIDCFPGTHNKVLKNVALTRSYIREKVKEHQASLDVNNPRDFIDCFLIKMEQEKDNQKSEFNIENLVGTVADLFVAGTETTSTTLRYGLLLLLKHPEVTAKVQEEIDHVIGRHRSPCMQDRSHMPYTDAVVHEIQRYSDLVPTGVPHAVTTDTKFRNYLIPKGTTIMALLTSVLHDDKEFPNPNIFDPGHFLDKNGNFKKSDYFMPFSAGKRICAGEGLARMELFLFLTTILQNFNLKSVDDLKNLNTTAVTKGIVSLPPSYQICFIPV

[14] = Metabolite ID; format: in vitro ADME; details: also in the presence of GSH
[15] = test system: CYP; test: CYP induction; format: in vitro ADME; details: at 10 μM
[16] = molecular target: T2, CYP450 2B6 (Homo sapiens, UniProt P20813); test: CYP450 inhibition, 2B6; format: in vitro ADME
T2 sequence (P20813 1-491): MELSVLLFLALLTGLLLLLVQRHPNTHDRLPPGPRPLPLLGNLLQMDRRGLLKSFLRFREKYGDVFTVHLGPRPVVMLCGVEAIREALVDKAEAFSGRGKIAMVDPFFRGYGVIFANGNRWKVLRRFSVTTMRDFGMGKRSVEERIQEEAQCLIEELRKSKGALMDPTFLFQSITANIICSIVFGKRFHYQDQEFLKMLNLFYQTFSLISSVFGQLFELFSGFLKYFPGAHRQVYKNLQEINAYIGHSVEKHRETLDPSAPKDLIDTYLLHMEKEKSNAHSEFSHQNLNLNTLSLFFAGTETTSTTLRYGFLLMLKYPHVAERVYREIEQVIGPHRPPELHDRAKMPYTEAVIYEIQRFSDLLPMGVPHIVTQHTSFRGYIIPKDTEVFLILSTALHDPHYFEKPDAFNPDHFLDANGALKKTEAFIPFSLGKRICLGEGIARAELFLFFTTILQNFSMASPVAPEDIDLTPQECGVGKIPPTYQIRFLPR

[17] = Ames assay
[18] = BBB-PAMPA permeability assay; format: in vitro ADME; details: pH 7.4

Row | SMILES | aq solubility at pH 7.4 [7] | IC50 [3] | IC50 [4] | IC50 [5] | IC50 [6] | IC50 [8] | IC50 [9] | also measured
1 | CCCC#Cc1cc(-c2nn(-c3nc(C(=O)O)cs3)c(CC3CC3)c2Cc2ccc(S(N)(=O)=O)c(F)c2)ccc1F [Compound 14, 2-(5-(Cyclopropylmethyl)-3-(4-fluoro-3-(pent-1-yn-1-yl)phenyl)-4-(3-fluoro-4-sulfamoylbenzyl)-1H-pyrazol-1-yl)thiazole-4-carboxylic Acid] |  |  |  |  |  |  |  | effect on LDH activity in tumors (in words) [1]: less effects; RLM stability T1/2 [2]: metabolized quickly
2 | CCCCC#Cc1cc(-c2nn(-c3nc(C(=O)O)cs3)c(CC3CC3)c2Cc2ccc(S(N)(=O)=O)c(F)c2)ccc1F [Compound 15, 2-(5-(Cyclopropylmethyl)-3-(4-fluoro-3-(hex-1-yn-1-yl)phenyl)-4-(3-fluoro-4-sulfamoylbenzyl)-1H-pyrazol-1-yl)thiazole-4-carboxylic Acid] |  |  |  |  |  |  |  | RLM stability T1/2 [2]: metabolized quickly
3 | CC1(C#Cc2cc(-c3nn(-c4nc(C(=O)O)cs4)c(CC4CC4)c3Cc3ccc(S(N)(=O)=O)c(F)c3)ccc2F)COC1 [Compound 26, 2-(5-(Cyclopropylmethyl)-3-(4-fluoro-3-((3-methyloxetan-3-yl)-ethynyl)phenyl)-4-(3-fluoro-4-sulfamoylbenzyl)-1H-pyrazol-1-yl)-thiazole-4-carboxylic Acid] | significantly diminished | 1180 nM | 898 nM | 10 nM | 1240 nM | 1050 nM | 84 nM | 
4 | NS(=O)(=O)c1ccc(Cc2c(-c3ccc(F)c(C#CC4(F)CCOC4)c3)nn(-c3nc(C(=O)O)cs3)c2CC2CC2)cc1F (stereo not shown) [Compound 30, 2-(5-(Cyclopropylmethyl)-3-(4-fluoro-3-((3-fluorotetrahydrofuran-3-yl)ethynyl)phenyl)-4-(3-fluoro-4-sulfamoylbenzyl)-1H-pyrazol-1-yl)thiazole-4-carboxylic Acid] | significantly diminished | 1050 nM | 867 nM | 1 nM | 882 nM | 1060 nM | 201 nM | 
5 | NS(=O)(=O)c1ccc(Cc2c(-c3ccc(F)c(C#CC4(O)CCOC4)c3)nn(-c3nc(C(=O)O)cs3)c2CC2CC2)cc1F (stereo not shown) [Compound 31, 2-(5-(Cyclopropylmethyl)-3-(4-fluoro-3-((3-hydroxytetrahydrofuran-3-yl)ethynyl)phenyl)-4-(3-fluoro-4-sulfamoylbenzyl)-1H-pyrazol-1-yl)thiazole-4-carboxylic Acid] |  | 2640 nM | 3870 nM | 5 nM | 1740 nM | 5940 nM | 815 nM | 
6 | Cn1cncc1C#Cc1cc(-c2nn(-c3nc(C(=O)O)cs3)c(CC3CC3)c2Cc2ccc(S(N)(=O)=O)c(F)c2)ccc1F [Compound 48, 2-(5-(Cyclopropylmethyl)-3-(4-fluoro-3-((1-methyl-1H-imidazole-5-yl)ethynyl)phenyl)-4-(3-fluoro-4-sulfamoylbenzyl)-1H-pyrazol-1-yl)thiazole-4-carboxylic Acid] | significantly diminished |  |  |  |  |  |  | 
7 | Cc1ccc(C#Cc2cccc(-c3nn(-c4nc(C(=O)O)cs4)c(CC4CC4)c3Cc3ccc(S(N)(=O)=O)c(F)c3)c2)s1 [Compound 52, 2-(5-(Cyclopropylmethyl)-4-(3-fluoro-4-sulfamoylbenzyl)-3-(3((5-methylthiophen-2-yl)-ethynyl)phenyl)-1H-pyrazol-1-yl)thiazole4-carboxylic Acid] |  |  |  |  |  |  |  | effect on LDH activity in tumors (in words) [1]: significantly reduced; half-life [11]: > 2 h; half-life [12]: > 2.5 h; IC50 [13]: 7500 nM; metabolite ID (in vitro) [14]: no significant phase I or II metabolites; clearance at 24 h [10]: 10.4 mL/min/kg; CYP induction [15]: no induction at 10 μM; IC50 [16]: 14000 nM; Ames [17]: not active; also recorded: negative; PAMPA-BBB permeability [18]: low permeability
8 | Cc1ccc(C#Cc2cccc(-c3nn(-c4nc(C(=O)O)cs4)c(C4CC45CC5)c3Cc3ccc(S(N)(=O)=O)c(F)c3)c2)s1 (stereo not shown) [Compound 87, 2-(4-(3-Fluoro-4-sulfamoylbenzyl)-3-(3-((5-methylthiophen-2-yl)ethynyl)phenyl)-5-(spiro[2.2]pentan-1-yl)-1H-pyrazol-1-yl)-thiazole-4-carboxylic Acid] |  | 526 nM | 459 nM | 122 nM | 469 nM | 485 nM | 175 nM | 

Second part, led by results:

Row | aq solubility at pH 7.4 [7] | SMILES | IC50 [3] | IC50 [4] | IC50 [5] | IC50 [6] | IC50 [8] | IC50 [9] | also measured
9 | significantly diminished | NS(=O)(=O)c1ccc(Cc2c(-c3ccc(F)c(C#CCN4CCCC4)c3)nn(-c3nc(C(=O)O)cs3)c2CC2CC2)cc1F [Compound 39, 2-(5-(Cyclopropylmethyl)-3-(4-fluoro-3-(3-(pyrrolidin-1-yl)prop-1-yn-1-yl)phenyl)-4-(3-fluoro-4-sulfamoylbenzyl)-1H-pyrazol-1-yl)-thiazole-4-carboxylic Acid] |  |  |  |  |  |  | 
10 | significantly diminished | Cc1cnc(C#Cc2cc(-c3nn(-c4nc(C(=O)O)cs4)c(CC4CC4)c3Cc3ccc(S(N)(=O)=O)c(F)c3)ccc2F)s1 [Compound 47, 2-(5-(Cyclopropylmethyl)-3-(4-fluoro-3-((5-methylthiazol-2-yl)-ethynyl)phenyl)-4-(3-fluoro-4-sulfamoylbenzyl)-1H-pyrazol-1-yl)-thiazole-4-carboxylic Acid] |  |  |  |  |  |  | effect on LDH activity in tumors (in words) [1]: less effects; clearance at 24 h [10]: 128 mL/min/kg
11 | significantly diminished | Cc1nc(C#Cc2cccc(-c3nn(-c4nc(C(=O)O)cs4)c(CC4CC4)c3Cc3ccc(S(N)(=O)=O)c(F)c3)c2)cs1 [Compound 65, 2-(5-(Cyclopropylmethyl)-4-(3-fluoro-4-sulfamoylbenzyl)-3-(3-((2-methylthiazol-4-yl)ethynyl)phenyl)-1H-pyrazol-1-yl)thiazole-4-carboxylic Acid] |  |  |  |  |  |  | 
12 | significantly diminished | Cc1cnc(C#Cc2cccc(-c3nn(-c4nc(C(=O)O)cs4)c(CCC4CC4)c3Cc3ccc(S(N)(=O)=O)c(F)c3)c2)s1 [Compound 80, 2-(5-(2-Cyclopropylethyl)-4-(3-fluoro-4-sulfamoylbenzyl)-3-(3((5-methylthiazol-2-yl)ethynyl)phenyl)-1H-pyrazol-1-yl)thiazole-4-carboxylic Acid] |  |  |  |  |  |  | 
